Measurements: US6127136A, “Detection of dioxin-like compounds by detection of transformed Ah receptor/ARNT complex” (Paracelsian, Inc., priority 1996, dated 2000)
Values joined by “and” are separate entries in the source; they are usually repeats but may differ in a detail not shown here. Equal entries are not always repeated.

Columns and labels:
[1] = molecular target: T1, transformed Ah receptor (Cavia porcellus, UniProt Q6J287); test: mini-Ah immunoassay (DRE affinity gel, dot-blot spot density), with or without added recombinant ARNT; format: biochemical, guinea pig (male Hartley, hepatic cytosol)
T1 construct: TCDD-transformed receptor captured as heterodimer on DRE-oligonucleotide gel; recombinant ARNT added in some protocols
T1 sequence (Q6J287 10-846): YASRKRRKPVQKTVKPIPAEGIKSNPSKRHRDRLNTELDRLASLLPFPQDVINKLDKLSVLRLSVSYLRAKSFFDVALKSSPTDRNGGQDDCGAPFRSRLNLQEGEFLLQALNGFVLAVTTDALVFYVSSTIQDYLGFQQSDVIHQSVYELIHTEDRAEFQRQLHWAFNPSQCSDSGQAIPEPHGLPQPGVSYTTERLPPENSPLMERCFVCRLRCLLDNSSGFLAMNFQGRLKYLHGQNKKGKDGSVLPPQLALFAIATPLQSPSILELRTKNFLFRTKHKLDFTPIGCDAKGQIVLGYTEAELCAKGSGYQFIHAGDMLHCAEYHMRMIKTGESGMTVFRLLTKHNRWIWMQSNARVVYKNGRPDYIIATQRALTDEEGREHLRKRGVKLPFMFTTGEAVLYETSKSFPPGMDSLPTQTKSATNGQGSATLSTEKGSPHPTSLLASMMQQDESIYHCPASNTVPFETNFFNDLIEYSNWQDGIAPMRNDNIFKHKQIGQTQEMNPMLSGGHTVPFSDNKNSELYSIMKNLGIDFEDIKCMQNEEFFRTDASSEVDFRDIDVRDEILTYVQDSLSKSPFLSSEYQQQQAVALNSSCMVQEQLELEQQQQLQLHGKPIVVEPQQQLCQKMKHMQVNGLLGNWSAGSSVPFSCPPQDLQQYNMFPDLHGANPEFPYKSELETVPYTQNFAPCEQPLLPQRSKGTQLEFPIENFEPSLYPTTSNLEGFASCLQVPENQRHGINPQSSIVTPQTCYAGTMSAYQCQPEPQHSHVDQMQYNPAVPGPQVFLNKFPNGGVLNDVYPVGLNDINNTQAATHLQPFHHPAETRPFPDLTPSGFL
T1 sequence (Q0WXX3 1-790 partner): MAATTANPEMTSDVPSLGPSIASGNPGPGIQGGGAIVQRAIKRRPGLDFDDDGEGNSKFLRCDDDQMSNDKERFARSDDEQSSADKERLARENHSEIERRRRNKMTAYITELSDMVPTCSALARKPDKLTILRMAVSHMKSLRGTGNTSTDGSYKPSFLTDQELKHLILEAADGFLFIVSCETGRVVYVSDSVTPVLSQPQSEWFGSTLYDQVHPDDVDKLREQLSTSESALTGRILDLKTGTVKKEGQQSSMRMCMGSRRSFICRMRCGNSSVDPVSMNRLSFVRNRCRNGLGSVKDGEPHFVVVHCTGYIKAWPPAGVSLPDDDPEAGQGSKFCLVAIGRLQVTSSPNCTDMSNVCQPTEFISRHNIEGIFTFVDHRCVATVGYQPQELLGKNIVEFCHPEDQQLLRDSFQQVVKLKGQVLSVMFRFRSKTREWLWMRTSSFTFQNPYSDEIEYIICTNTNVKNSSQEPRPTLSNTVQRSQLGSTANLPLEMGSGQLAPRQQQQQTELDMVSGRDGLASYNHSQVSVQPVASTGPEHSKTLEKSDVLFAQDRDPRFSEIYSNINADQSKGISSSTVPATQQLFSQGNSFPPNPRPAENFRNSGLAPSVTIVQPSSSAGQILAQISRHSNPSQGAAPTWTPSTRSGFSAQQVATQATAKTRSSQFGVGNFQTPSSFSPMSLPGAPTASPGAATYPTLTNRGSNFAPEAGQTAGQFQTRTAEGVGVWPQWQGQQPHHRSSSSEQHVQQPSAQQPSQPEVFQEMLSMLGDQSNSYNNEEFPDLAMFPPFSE
Protocol: Male Hartley guinea pigs weighing 300-350 g were obtained from Cornell Research Animal Resources, Cornell University, Ithaca, N.Y. Guinea pigs were anaesthetized and killed with carbon dioxide. Livers were perfused in situ with 100 mL ice-cold perfusion buffer, excised, trimmed of connective tissue, poorly perfused liver and gall bladder and weighed. The liver was minced and five mL of ice-cold HEDG per gram liver were added and the whole homogenized in a 50 mL homogenizer with teflon pestle using at 200 rpm for a total of seven strokes. Crude homogenate was centrifuged at 12,500 RPM in 50 mL tubes in a JA17 rotor in a Beckman J2-MI preparative centifuge at 4 degrees C for 20 minutes.
Procedure for the mini-Ah Immuno Assay
Preparation of Buffers: 155 uM TCDD stock was prepared by dissolving 1 mg 2,3,7,8-tetrachloro-dibenzo-p-dioxin (Cambridge Isotope Labs) in 20 mL DMSO (dimethylsulfoxide) overnight. 10 uM working dilution of TCDD was prepared by diluting 0.129 mL of the stock with 1.871 mL DMSO. 4M NaCl/HEDG was prepared by adding 116.88 g sodium chloride to 300 mL HEDG and adjusting the volume to 500 mL with HEDG. 0.3 M NaCl/HEDG was prepared by diluting 1.5 mL 4 M NaCl/HEDG to 20 mL with HEDG 0.6 M NaCl/HEDG was prepared by diluting 3.0 mL 4 M NaCl/HEDG to 20 mL with HEDG TBST was prepared by dissolving 1.18 g Tris-base, 6.35 g Tris-HCl, 8.76 g NaCL, and 2 mL Tween 20 in 800 mL water, adjusting volume to 1000 mL. Blocker was prepared by dissolving 10 g non-fat dry milk (Carnation) in 200 mL TBST. AP development buffer was prepared by dissolving 11 g Tris-base, 1.6 g Tris-HCl, 5.84 g Sodium Chloride, 10.2 g Magnesium Chloride hexahydrate, in 800 mL water and adjusting the volume to 1000 mL. BCIP stock was prepared by dissolving 100 mg BCIP (5-Bromo-4-Chloro-3-Indolyl Phosphate) in 2 mL N,N-Dimethylformamide, aliquoting into 66 uL portions, and freezing at -20 C until use. NBT stock was prepared by dissolving 250 mg NBT (Nitro Blue Tetrazolium) in 25 mL water, aliquoting into 660 uL proportions, and storing at -20 C until use. BCIP/NBT developer was prepared immediately before use by mixing one 66 uL aliquot of BCIP and one 660 uL aliquot of NBT in 20 mL AP development buffer.
For a typical mini-Ah immunoassay utilizing 12 samples, 5 mL of Transformed Ah Receptor Affinity Gel slurry described above was pipeted into a 50 mL conical tube. The slurry was washed with 40 mL HEDG and centifuged at 1000 g for 5 min, the supernatant withdrawn and discarded, the pellet washed with 40 mL HEDG, and centrifuged again. After the second centrifugation all but 5 mL of supernatant was withdrawn and the gel thus resuspended in the original volume. 10 mL guinea pig hepatic cytosol was thawed. The thawed cytosol was pooled and then divided into two 5 mL groups and treated with either 5 uL DMSO or 5 uL 10 uM TCDD in DMSO.
Assembly of transformation mixture:In the preferred embodiment of the mini-Ah immunoassay, each sample was composed of one 1.5 mL microfuge tube with the following sequential additions: 90 uL 4 M NaCl/HEDG, 400 uL Transformed Ah Receptor Affinity Gel slurry and 800 uL cytosol (treated with DMSO or TCDD as described above). The three components described above are the minimum components added at that step of the mini-Ah immunoassay. Any additional materials, such as ARNT, anti-ARNT and anti-Rabbit/alkaline phosphatase conjugate, were sometimes also added at this time as described in the specific examples. After assembly of the samples, the tubes were capped and the samples incubated at room temperature for 2 hours with gentle rocking to allow transformation of the Ah receptor to take place, interaction of transformed Ah receptor and ARNT, and binding of the transformed Ah receptor as a heteromer to the DRE oligonucleotide contained on the Transformed Ah Receptor Affinity Gel.
Isolation transformed Ah receptor: After the 2 hour incubation the mixtures were pipetted into the empty column barrels and allowed to drain. […]

[2] = molecular target: transformed Ah receptor/ARNT complex (Cavia porcellus, UniProt Q6J287); test: Ah-ELISA dose response using PnPP detection; format: biochemical, guinea pig (hepatic cytosol); parameters: from tissue; host or cells: hepatic cytosol of male Hartley guinea pigs (animals from Cornell Research Animal Resources); conditions: for Average Optical Density: 405 nm, PnPP 58 minutes
Sequence of transformed Ah receptor/ARNT complex (Q6J287 1-846): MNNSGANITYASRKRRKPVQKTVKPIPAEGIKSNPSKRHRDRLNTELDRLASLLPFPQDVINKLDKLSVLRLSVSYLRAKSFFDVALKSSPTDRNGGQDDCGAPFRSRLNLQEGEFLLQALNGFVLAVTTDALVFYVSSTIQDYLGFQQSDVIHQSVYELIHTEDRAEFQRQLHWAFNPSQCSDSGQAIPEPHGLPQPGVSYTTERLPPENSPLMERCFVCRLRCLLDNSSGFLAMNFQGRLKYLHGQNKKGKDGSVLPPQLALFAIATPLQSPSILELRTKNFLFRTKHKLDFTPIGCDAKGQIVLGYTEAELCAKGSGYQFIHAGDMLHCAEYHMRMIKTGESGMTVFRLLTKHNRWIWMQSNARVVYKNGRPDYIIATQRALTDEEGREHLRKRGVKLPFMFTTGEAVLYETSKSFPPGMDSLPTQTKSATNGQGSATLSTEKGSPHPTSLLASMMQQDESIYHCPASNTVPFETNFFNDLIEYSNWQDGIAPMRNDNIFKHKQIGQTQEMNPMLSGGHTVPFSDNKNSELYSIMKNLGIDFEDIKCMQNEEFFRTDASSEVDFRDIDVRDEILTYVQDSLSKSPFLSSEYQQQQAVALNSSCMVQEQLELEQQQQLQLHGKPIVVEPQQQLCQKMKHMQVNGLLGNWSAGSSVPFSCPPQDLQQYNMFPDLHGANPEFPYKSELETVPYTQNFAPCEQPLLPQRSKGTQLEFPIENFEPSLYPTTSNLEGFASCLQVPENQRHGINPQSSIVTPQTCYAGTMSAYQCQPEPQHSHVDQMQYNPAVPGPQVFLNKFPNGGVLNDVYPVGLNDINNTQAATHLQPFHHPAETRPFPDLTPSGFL
Sequence of transformed Ah receptor/ARNT complex (Q0WXX3 1-790 partner): as the sequence (Q0WXX3 1-790 partner) above
Protocol: The reagents and ELISA plate were prepared as described in Example 9 with the standard PNPP detection technique. The TCDD concentration was varied tested at 0, 0.016, 0.031, 0.063, 0.125, 0.25, 0.5, and 1.0 nM. After washing the plates PnPP stock was added to each well (200 uL) and the plate was incubated for 1 hour (actually 58 minutes for data shown below), at which time it was read at 405 nm in an ELISA plate reader and milli O.D. recorded.

## Clc1cc2c(cc1Cl)Oc1cc(Cl)c(Cl)cc1O2 [TCDD, 2,3,7,8-tetrachlorodibenzo-p-dioxin]
[1]; Example 1, arnt spike 2 ug
  spot density, difference TCDD treated (+) minus DMSO treated (-): 224497
[1]; Example 1, arnt spike 2 ug, TCDD (+), average of two replicates
  spot density, average: 303679
[1]; Example 1, arnt spike 2 ug, TCDD (+), single replicate
  spot density: 308831 and 298526
[1]; Example 1, normal protocol, no ARNT added
  spot density, difference TCDD treated (+) minus DMSO treated (-): 49541
[1]; Example 1, normal protocol, no ARNT added, TCDD (+), average of two replicates
  spot density, average: 149868
[1]; Example 1, normal protocol, no ARNT added, TCDD (+), single replicate
  spot density: 157620 and 142115
[1]; Example 2, 0.5 ug arnt
  spot density, difference TCDD treated (+) minus DMSO treated (-): 129849
[1]; Example 2, 0.5 ug arnt, TCDD (+), average of two replicates
  spot density, average: 174210
[1]; Example 2, 0.5 ug arnt, TCDD (+), single replicate
  spot density: 184049 and 164371
[1]; Example 2, 2.0 ug arnt
  spot density, difference TCDD treated (+) minus DMSO treated (-): 209747
[1]; Example 2, 2.0 ug arnt, TCDD (+), average of two replicates
  spot density, average: 270107
[1]; Example 2, 2.0 ug arnt, TCDD (+), single replicate
  spot density: 281912 and 258302
[1]; Example 3, normal, anti-Ah receptor probe
  density, difference TCDD treated (+) minus DMSO treated (-): 77724
[1]; Example 3, normal, anti-Ah receptor probe, TCDD (+), average of two replicates
  density, average: 169988
[1]; Example 3, normal, probed with anti-Ah receptor/alkaline phosphatase, TCDD (+), single replicate
  density: 177175 and 162801
[2]; 0.016 nM TCDD
  Average Optical Density: 0.3
[2]; 0.031 nM TCDD
  Average Optical Density: 0.338
[2]; 0.063 nM TCDD
  Average Optical Density: 0.4
[2]; 0.125 nM TCDD
  Average Optical Density: 0.527
[2]; 0.25 nM TCDD
  Average Optical Density: 0.804
[2]; 0.5 nM TCDD
  Average Optical Density: 1.409
[2]; 1 nM TCDD
  Average Optical Density: 2.155
[2]; PnPP detection, FIG. 6
  EC50: ~0.248 nM
